The values that follow come from ChEMBL document CHEMBL1201862, “PubChem BioAssay data set” (2004).

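A five-concentration, 48-hour dose response in 96-well plates underlies each endpoint, interpolated linearly between surrounding concentrations. GI50 = concentration required for 50% inhibition of growth.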 Calls of active or inactive are those of the source. Rule as the data show it: active = GI50 up to about 1.1 µM and inactive = higher.

Holding throughout (assay): NCI-60 cell line screen, 48 h
The test system of assay [1] is A549.
Assay [2] concerns HL-60.
For assay [3], the system named is HOP-62.
Assay [4] has as its system HOP-92.
For assay [5], the system named is K562.
For assay [6], the system named is KM12.
Assay [7] has as its system M14.
Assay [8] has as its system Malme-3M.
Assay [9] relates to NCI-H226.
For assay [10], the system named is NCI-H522.
The test system of assay [11] is OVCAR-3.
In assay [12] the test system is RPMI-8226.
Assay [13] has as its system RXF 393.
Assay [14] deals with SF-295.
For assay [15], the system named is SNB-75.
Assay [16] deals with UACC-257.
Assay [17] relates to UACC-62.
For assay [18], the system named is HCC 2998.

Take `O=C(c1ccc(Cl)cc1)N(C(=S)N1CCN(c2ccccc2)CC1)c1ccccc1`: the GI50 in [1], in [2], in assay [3], in [4], in assay [5] and in [6] was > 100 µM (inactive) throughout. In addition, the GI50 in [7] was > 100 µM (inactive); in assay [8], > 100 µM (inactive); in assay [9], 53.8 µM (inactive); in assay [10] it was > 100 µM (inactive); in assay [11] it was > 100 µM (inactive); in assay [12] it was > 100 µM (inactive). Further, the GI50 in [13], in assay [14], in [15], in assay [16] and in assay [17] was > 100 µM (inactive) throughout.

For the molecule `O=C(CC(=O)C(=O)CC(=O)OCc1ccccc1)OCc1ccccc1`, the GI50 in assay [1] was 60.8 µM (inactive); in [18], > 100 µM (inactive); in [2], 63.4 µM (inactive); in assay [3], 56.2 µM (inactive); in [4] it was 58.1 µM (inactive); in [5] it was 58.6 µM (inactive). Also, the GI50 is > 100 µM (inactive) in assay [7]; > 100 µM (inactive) in assay [8]; 31.3 µM (inactive) in [10]; 45.8 µM (inactive) in [12]; 75 µM (inactive) in assay [13]; 61.5 µM (inactive) in assay [15]. Also, the GI50 in assay [17] was 84.9 µM (inactive).

For `O=C(CC(=O)N1N=C(N2c3ccccc3Sc3ccccc32)CC1c1ccccc1)Nc1ccc(Cl)cc1` (configuration not stated), the GI50 in [1] was > 100 µM (inactive); in assay [18], > 100 µM (inactive); in [2] it was > 10 µM (inactive); in [3], > 100 µM (inactive); in assay [4] it was > 100 µM (inactive); in [5] it was > 10 µM (inactive). The GI50 in assay [6], in [7], in assay [8], in assay [11], in [13] and in assay [14] was > 100 µM (inactive) each time. Moreover, the GI50 in [15], in assay [16] and in assay [17] was > 100 µM (inactive) each time.

For `O=C1c2ccccc2C2(Br)C(=O)c3ccccc3C12` (configuration not stated), the GI50 in assay [1], in [18], in assay [2], in assay [3], in assay [4] and in [5] was > 100 µM (inactive) throughout. Besides, the GI50 in assay [6], in assay [7], in assay [8], in assay [10], in assay [11] and in [12] was > 100 µM (inactive) throughout. The GI50 in assay [13], in assay [14], in [15], in assay [16] and in assay [17] was > 100 µM (inactive) in each case.

Take `COc1cc(C(=O)C/C(CCC(=O)Nc2ccccc2[N+](=O)[O-])=N\NC(=O)CC#N)ccc1O`: the GI50 in [1], in [18], in [2], in assay [3], in [5] and in assay [6] was > 100 µM (inactive) each time. The GI50 in [7], in [8], in assay [9], in assay [10], in assay [11] and in [12] was > 100 µM (inactive) in each case. Moreover, the GI50 in assay [13] was > 100 µM (inactive); in [14], > 100 µM (inactive); in assay [15], 49.1 µM (inactive); in assay [16], > 100 µM (inactive); in assay [17], > 100 µM (inactive).

As for `O=C1CC(C[C@H](O)C2CCCCC2O)CC(=O)N1Cc1ccccc1` (some centres not stated), the GI50 in [1], in [18], in assay [2], in assay [3], in assay [5] and in assay [6] was > 100 µM (inactive) throughout. In addition, the GI50 in assay [7], in [8], in [9], in assay [10], in [11] and in [13] was > 100 µM (inactive) in each case. In addition, the GI50 in assay [14], in [15], in assay [16] and in assay [17] was > 100 µM (inactive) in each case.

`C[N+]1(C)C/C(=C\c2ccccc2)C(=O)/C(=C/c2ccccc2)C1`: the GI50 in assay [1] was > 100 µM (inactive); in assay [18] it was > 100 µM (inactive); in assay [2], > 100 µM (inactive); in assay [3] it was > 100 µM (inactive); in assay [4], > 100 µM (inactive); in assay [5] it was 62.2 µM (inactive). The GI50 is > 100 µM (inactive) in assay [6]; > 100 µM (inactive) in assay [7]; > 100 µM (inactive) in assay [8]; > 100 µM (inactive) in assay [9]; > 100 µM (inactive) in assay [11]; 51.2 µM (inactive) in [12]. The GI50 in [13], in [14], in assay [15] and in [16] was > 100 µM (inactive) each time.

Turning to `O=C(O)c1oc2ccc([N+](=O)[O-])c3c2c1CCC3`, the GI50 in assay [1] is > 100 µM (inactive); in assay [18], > 100 µM (inactive); in [2] it was > 100 µM (inactive); in assay [3], > 100 µM (inactive); in assay [4], 27.7 µM (inactive); in assay [6], > 100 µM (inactive). Further, the GI50 was > 100 µM (inactive) in assay [7]; 54.1 µM (inactive) in assay [8]; > 100 µM (inactive) in assay [9]; > 100 µM (inactive) in assay [10]; > 100 µM (inactive) in [11]; > 100 µM (inactive) in assay [13]. For the same molecule, the GI50 in assay [14] was > 100 µM (inactive); in [15], 67.6 µM (inactive); in assay [16], > 100 µM (inactive).

In the case of `COC(=O)C1(C(C)C)CCc2c(OC)ccc(OC)c2C1=O` (configuration not stated), the GI50 in assay [1], in assay [18], in [2], in [3], in [5] and in assay [6] was > 100 µM (inactive) throughout. Also, the GI50 in [7] was > 100 µM (inactive); in [8], > 100 µM (inactive); in assay [10] it was > 100 µM (inactive); in assay [11], > 100 µM (inactive); in [12], 93.3 µM (inactive); in [14], > 100 µM (inactive). Further, the GI50 was > 100 µM (inactive) in assay [16] and 79.8 µM (inactive) in assay [17].

For the molecule `NCCNCCNCc1c2ccccc2c(CNCCNCCN)c2ccccc12`, the GI50 was 79.3 µM (inactive) in assay [1]; 54 µM (inactive) in assay [18]; 46.1 µM (inactive) in [2]; 60.3 µM (inactive) in assay [3]; 22.3 µM (inactive) in assay [4]; 25.4 µM (inactive) in assay [5]. For the same molecule, the GI50 in assay [6] is 40.4 µM (inactive); in assay [7], > 100 µM (inactive); in assay [8], 84.9 µM (inactive); in [9] it was 50.1 µM (inactive); in assay [11], > 100 µM (inactive); in assay [12], 29.6 µM (inactive). For the same molecule, the GI50 in assay [13] was 40.9 µM (inactive); in assay [14], 41.4 µM (inactive); in assay [16], > 100 µM (inactive); in [17], 34 µM (inactive).

For the molecule `c1ccc(C2CC(c3ccc4ccccc4c3)=Nc3ccccc3S2)cc1` (configuration not stated), the GI50 is 18.3 µM (inactive) in assay [1]; 11.9 µM (inactive) in [18]; 19.5 µM (inactive) in assay [2]; 17.1 µM (inactive) in [3]; 20 µM (inactive) in [5]; 17.7 µM (inactive) in [6]. The GI50 in assay [7] was 15.8 µM (inactive); in [8] it was 19.4 µM (inactive); in assay [9], 19.4 µM (inactive); in [10] it was 17 µM (inactive); in assay [11], 17.3 µM (inactive); in assay [12], 3.26 µM (inactive). Also, the GI50 in assay [13] was 19.1 µM (inactive); in assay [14], 17.9 µM (inactive); in assay [15], 15.6 µM (inactive); in assay [16] it was 19.5 µM (inactive); in [17], 16.9 µM (inactive).

On to `CN(C)CCNC(=O)c1cccc2nc3ccc4ccccc4c3nc12`, for which the GI50 was 0.0481 µM (active) in assay [1]; 0.126 µM (active) in [18]; 0.114 µM (active) in [2]; 0.147 µM (active) in [3]; 0.0957 µM (active) in [4]; 0.0931 µM (active) in [5]. In addition, the GI50 in assay [6] is 0.131 µM (active); in assay [7], 0.2 µM (active); in assay [9] it was 0.178 µM (active); in assay [11], 0.169 µM (active); in [13] it was 0.0583 µM (active); in assay [14], 0.0989 µM (active). For the same molecule, the GI50 in [15] was 0.12 µM (active); in assay [16] it was 0.212 µM (active); in assay [17], 0.126 µM (active).

As for `CSC1(C)CC2C(CC1N1CCCCC1)C2(C)C` (configuration not stated), the GI50 in assay [1], in assay [18], in assay [2], in assay [4], in [5] and in [6] was > 100 µM (inactive) each time. Also, the GI50 in assay [7], in [8], in assay [9], in assay [11], in assay [12] and in assay [14] was > 100 µM (inactive) each time. Moreover, the GI50 in [15] and in assay [16] was > 100 µM (inactive) in each case.
